Calls of active or inactive are those of the source. No cut-off for these calls is given here.
Tests used:
[1] = target: Inhibitor of nuclear factor kappa-B kinase subunit beta (Homo sapiens) (UniProt O14920); experiment: Inhibition of IKK-beta at 10 uM assessed as residual activity by [33P]ATP radioactive filter binding assay relative to control
[2] = target: Mitogen-activated protein kinase 11 (Homo sapiens) (UniProt Q15759); experiment: Inhibition of p38beta at 10 uM assessed as residual activity by [33P]ATP radioactive filter binding assay relative to control
[3] = target: Serine/threonine-protein kinase pim-3 (Homo sapiens) (UniProt Q86V86); experiment: Inhibition of PIM3 at 10 uM assessed as residual activity by [33P]ATP radioactive filter binding assay relative to control
[4] = target: Serine/threonine-protein kinase PAK 5 (Homo sapiens) (UniProt Q9P286); experiment: Inhibition of PAK5 at 10 uM assessed as residual activity by [33P]ATP radioactive filter binding assay relative to control
[5] = target: MAP kinase-activated protein kinase 3 (Homo sapiens) (UniProt Q16644); experiment: Inhibition of MAPKAPK-3 at 10 uM assessed as residual activity by [33P]ATP radioactive filter binding assay relative to control
[6] = target: Tyrosine-protein kinase CSK (Homo sapiens) (UniProt P41240); experiment: Inhibition of CSK at 10 uM assessed as residual activity by [33P]ATP radioactive filter binding assay relative to control
[7] = target: Ribosomal protein S6 kinase alpha-3 (Homo sapiens) (UniProt P51812); experiment: Inhibition of RSK2 at 10 uM assessed as residual activity by [33P]ATP radioactive filter binding assay relative to control
[8] = target: Serine/threonine-protein kinase MARK2 (Homo sapiens) (UniProt Q7KZI7); experiment: Inhibition of MARK2 at 10 uM assessed as residual activity by [33P]ATP radioactive filter binding assay relative to control
[9] = target: Serine/threonine-protein kinase 3 (Homo sapiens) (UniProt Q13188); experiment: Inhibition of MST2 at 10 uM assessed as residual activity by [33P]ATP radioactive filter binding assay relative to control
[10] = target: Serine/threonine-protein kinase Sgk1 (Homo sapiens) (UniProt O00141); experiment: Inhibition of SGK1 at 10 uM assessed as residual activity by [33P]ATP radioactive filter binding assay relative to control
[11] = target: Dual specificity tyrosine-phosphorylation-regulated kinase 1A (Homo sapiens) (UniProt Q13627); experiment: Inhibition of DYRK1A at 10 uM assessed as residual activity by [33P]ATP radioactive filter binding assay relative to control
[12] = target: Serine/threonine-protein kinase Nek6 (Homo sapiens) (UniProt Q9HC98); experiment: Inhibition of NEK6 at 10 uM assessed as residual activity by [33P]ATP radioactive filter binding assay relative to control
[13] = target: Insulin receptor (Homo sapiens) (UniProt P06213); experiment: Inhibition of His-IR at 10 uM assessed as residual activity by [33P]ATP radioactive filter binding assay relative to control
[14] = Inhibition of PKA at 10 uM assessed as residual activity by [33P]ATP radioactive filter binding assay relative to control
[15] = target: Aurora kinase A (Homo sapiens) (UniProt O14965); experiment: Inhibition of Aurora A at 10 uM assessed as residual activity by [33P]ATP radioactive filter binding assay relative to control
[16] = target: Mitogen-activated protein kinase 1 (Homo sapiens) (UniProt P28482); experiment: Inhibition of ERK2 at 10 uM assessed as residual activity by [33P]ATP radioactive filter binding assay relative to control
[17] = target: Cyclin-dependent kinase 2/cyclin A (Homo sapiens) (UniProt P24941+P20248+P78396); experiment: Inhibition of CDK2/Cyclin A at 10 uM assessed as residual activity by [33P]ATP radioactive filter binding assay relative to control; assay type: protein-complex assay
[18] = target: Ribosomal protein S6 kinase alpha-5 (Homo sapiens) (UniProt O75582); experiment: Inhibition of MSK1 at 10 uM assessed as residual activity by [33P]ATP radioactive filter binding assay relative to control
[19] = target: Eukaryotic elongation factor 2 kinase (Homo sapiens) (UniProt O00418); experiment: Inhibition of EF2K at 10 uM assessed as residual activity by [33P]ATP radioactive filter binding assay relative to control
[20] = target: Homeodomain-interacting protein kinase 2 (Homo sapiens) (UniProt Q9H2X6); experiment: Inhibition of HIPK2 at 10 uM assessed as residual activity by [33P]ATP radioactive filter binding assay relative to control
PC-9 = experiment: Cytotoxicity against human PC9 cells expressing 746-750 sequence deleted EGFR assessed as cell viability at 0.001 to 10 uM after 96 hrs by cell titer-glo assay; assay type: functional, cell-based
[21] = target: Receptor tyrosine-protein kinase erbB-4 (Homo sapiens) (UniProt Q15303); experiment: Inhibition of HER4 at 10 uM assessed as residual activity by [33P]ATP radioactive filter binding assay relative to control
[22] = target: Tyrosine-protein kinase Lck (Homo sapiens) (UniProt P06239); experiment: Inhibition of Lck at 10 uM assessed as residual activity by [33P]ATP radioactive filter binding assay relative to control
[23] = target: Misshapen-like kinase 1 (Homo sapiens) (UniProt Q8N4C8); experiment: Inhibition of MINK1 at 10 uM assessed as residual activity by [33P]ATP radioactive filter binding assay relative to control
[24] = target: Proto-oncogene tyrosine-protein kinase Src (Homo sapiens) (UniProt P12931); experiment: Inhibition of Src at 10 uM assessed as residual activity by [33P]ATP radioactive filter binding assay relative to control
[25] = Inhibition of PHK at 10 uM assessed as residual activity by [33P]ATP radioactive filter binding assay relative to control
[26] = target: Aurora kinase B (Homo sapiens) (UniProt Q96GD4); experiment: Inhibition of Aurora B at 10 uM assessed as residual activity by [33P]ATP radioactive filter binding assay relative to control
[27] = target: Dual specificity mitogen-activated protein kinase kinase 1 (Homo sapiens) (UniProt Q02750); experiment: Inhibition of MKK1 at 10 uM assessed as residual activity by [33P]ATP radioactive filter binding assay relative to control
[28] = target: Serine/threonine-protein kinase BRSK1 (Homo sapiens) (UniProt Q8TDC3); experiment: Inhibition of BRSK1 at 10 uM assessed as residual activity by [33P]ATP radioactive filter binding assay relative to control
[29] = target: Tyrosine-protein kinase SYK (Homo sapiens) (UniProt P43405); experiment: Inhibition of SYK at 10 uM assessed as residual activity by [33P]ATP radioactive filter binding assay relative to control
cells = details: Mus musculus, BaF3, 96 h
Description: Growth inhibition of mouse BA/F3 cells expressing EGFR Del5 and Thr790Met mutant after 96 hrs by cell titer-glo assay

[30] = system: 3-phosphoinositide-dependent protein kinase 1; experiment: Inhibition of PDK1 at 10 uM assessed as residual activity by [33P]ATP radioactive filter binding assay relative to control

Sequence of Dual specificity mitogen-activated protein kinase kinase 1 (Homo sapiens) (Q02750 whole entry): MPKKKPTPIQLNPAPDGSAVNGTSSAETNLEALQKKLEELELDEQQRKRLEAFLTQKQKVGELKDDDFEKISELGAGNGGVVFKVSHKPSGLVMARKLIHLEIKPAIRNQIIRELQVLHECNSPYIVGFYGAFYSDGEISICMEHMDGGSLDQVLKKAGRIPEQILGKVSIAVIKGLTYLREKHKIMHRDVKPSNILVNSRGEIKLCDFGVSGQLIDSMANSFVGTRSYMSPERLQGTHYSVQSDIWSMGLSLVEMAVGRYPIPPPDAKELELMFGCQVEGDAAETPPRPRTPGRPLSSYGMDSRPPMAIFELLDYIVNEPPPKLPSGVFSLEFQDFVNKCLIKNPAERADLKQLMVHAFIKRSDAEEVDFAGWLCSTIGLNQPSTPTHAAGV
Sequence of Serine/threonine-protein kinase PAK 5 (Homo sapiens) (Q9P286 whole entry, looked up): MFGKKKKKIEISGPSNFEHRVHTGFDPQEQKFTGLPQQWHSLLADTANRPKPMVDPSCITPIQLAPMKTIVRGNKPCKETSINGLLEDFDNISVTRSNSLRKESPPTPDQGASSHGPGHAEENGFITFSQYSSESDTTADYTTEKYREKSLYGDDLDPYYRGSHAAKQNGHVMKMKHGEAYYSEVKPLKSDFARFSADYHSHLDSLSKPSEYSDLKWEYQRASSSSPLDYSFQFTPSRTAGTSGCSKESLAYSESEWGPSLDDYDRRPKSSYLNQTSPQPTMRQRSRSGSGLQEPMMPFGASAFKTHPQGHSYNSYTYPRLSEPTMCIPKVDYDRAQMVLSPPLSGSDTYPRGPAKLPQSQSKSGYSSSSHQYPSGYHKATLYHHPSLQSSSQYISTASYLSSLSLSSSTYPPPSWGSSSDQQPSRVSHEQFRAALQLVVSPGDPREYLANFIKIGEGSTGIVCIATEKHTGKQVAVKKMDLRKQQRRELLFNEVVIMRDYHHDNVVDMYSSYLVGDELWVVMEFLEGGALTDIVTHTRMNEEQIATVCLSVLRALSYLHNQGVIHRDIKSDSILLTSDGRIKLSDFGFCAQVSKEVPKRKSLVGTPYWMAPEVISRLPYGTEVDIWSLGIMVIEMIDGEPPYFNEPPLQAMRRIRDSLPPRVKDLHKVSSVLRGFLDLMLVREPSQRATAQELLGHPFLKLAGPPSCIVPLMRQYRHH
Sequence of Serine/threonine-protein kinase MARK2 (Homo sapiens) (Q7KZI7 whole entry): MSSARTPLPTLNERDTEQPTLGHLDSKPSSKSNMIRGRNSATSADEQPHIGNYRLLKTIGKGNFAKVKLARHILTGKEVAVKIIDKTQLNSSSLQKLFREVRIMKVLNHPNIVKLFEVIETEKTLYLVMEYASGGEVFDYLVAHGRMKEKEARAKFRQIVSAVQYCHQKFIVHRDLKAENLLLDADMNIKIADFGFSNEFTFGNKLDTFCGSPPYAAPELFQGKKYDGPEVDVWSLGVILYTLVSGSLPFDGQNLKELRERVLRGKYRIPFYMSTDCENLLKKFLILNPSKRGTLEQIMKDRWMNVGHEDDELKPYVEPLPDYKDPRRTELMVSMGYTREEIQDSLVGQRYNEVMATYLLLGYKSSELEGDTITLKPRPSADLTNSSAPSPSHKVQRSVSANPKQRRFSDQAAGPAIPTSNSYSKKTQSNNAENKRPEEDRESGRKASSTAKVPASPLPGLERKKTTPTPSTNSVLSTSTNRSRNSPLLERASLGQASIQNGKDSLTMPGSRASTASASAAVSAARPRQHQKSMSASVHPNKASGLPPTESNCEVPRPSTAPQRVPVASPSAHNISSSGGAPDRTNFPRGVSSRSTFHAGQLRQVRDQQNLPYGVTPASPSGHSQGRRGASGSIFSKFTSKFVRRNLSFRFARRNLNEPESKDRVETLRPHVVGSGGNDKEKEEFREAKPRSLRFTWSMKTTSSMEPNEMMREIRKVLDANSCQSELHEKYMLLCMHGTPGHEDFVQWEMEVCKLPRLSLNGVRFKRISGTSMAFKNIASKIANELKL
Sequence of Serine/threonine-protein kinase BRSK1 (Homo sapiens) (Q8TDC3 whole entry): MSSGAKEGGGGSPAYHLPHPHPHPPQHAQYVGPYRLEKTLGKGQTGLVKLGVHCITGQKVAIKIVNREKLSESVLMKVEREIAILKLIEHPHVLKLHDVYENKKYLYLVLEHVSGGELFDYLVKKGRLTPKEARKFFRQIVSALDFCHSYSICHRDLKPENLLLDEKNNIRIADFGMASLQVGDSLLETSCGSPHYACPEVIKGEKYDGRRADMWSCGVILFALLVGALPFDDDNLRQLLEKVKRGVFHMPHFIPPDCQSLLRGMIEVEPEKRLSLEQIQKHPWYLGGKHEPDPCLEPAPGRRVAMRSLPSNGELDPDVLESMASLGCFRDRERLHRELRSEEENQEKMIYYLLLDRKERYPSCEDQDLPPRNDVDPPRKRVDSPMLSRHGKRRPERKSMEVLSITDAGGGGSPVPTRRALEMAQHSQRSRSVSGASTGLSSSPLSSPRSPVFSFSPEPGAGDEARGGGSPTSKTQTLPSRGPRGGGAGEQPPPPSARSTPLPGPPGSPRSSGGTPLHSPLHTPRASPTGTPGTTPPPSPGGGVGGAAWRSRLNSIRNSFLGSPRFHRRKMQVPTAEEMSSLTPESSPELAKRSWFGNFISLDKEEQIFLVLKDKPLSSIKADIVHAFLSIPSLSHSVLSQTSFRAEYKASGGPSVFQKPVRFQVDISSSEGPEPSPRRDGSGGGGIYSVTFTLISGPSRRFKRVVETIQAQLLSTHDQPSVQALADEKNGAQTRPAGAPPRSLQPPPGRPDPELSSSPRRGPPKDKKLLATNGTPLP
Sequence of Ribosomal protein S6 kinase alpha-5 (Homo sapiens) (O75582 whole entry, looked up): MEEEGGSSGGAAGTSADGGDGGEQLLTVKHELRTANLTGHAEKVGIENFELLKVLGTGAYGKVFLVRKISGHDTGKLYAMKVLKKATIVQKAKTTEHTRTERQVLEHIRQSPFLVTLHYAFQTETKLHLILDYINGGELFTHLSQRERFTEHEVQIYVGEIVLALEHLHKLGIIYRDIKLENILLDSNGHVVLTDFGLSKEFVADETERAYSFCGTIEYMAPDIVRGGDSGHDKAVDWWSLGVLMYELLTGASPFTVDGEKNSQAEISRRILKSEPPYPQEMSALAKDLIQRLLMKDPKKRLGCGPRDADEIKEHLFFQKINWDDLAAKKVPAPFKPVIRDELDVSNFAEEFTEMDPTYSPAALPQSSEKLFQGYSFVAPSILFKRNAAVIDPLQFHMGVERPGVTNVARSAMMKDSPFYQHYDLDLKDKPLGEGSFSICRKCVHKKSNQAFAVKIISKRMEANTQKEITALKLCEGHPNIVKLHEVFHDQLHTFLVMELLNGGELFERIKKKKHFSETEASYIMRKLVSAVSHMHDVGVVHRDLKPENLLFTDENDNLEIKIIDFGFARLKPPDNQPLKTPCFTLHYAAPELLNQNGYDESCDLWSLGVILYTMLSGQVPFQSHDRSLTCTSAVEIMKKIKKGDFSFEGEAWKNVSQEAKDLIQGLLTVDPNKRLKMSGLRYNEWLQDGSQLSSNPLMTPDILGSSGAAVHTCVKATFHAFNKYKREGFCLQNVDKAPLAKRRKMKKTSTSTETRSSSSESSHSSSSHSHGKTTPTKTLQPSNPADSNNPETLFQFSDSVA
Sequence of Receptor tyrosine-protein kinase erbB-4 (Homo sapiens) (Q15303 whole entry): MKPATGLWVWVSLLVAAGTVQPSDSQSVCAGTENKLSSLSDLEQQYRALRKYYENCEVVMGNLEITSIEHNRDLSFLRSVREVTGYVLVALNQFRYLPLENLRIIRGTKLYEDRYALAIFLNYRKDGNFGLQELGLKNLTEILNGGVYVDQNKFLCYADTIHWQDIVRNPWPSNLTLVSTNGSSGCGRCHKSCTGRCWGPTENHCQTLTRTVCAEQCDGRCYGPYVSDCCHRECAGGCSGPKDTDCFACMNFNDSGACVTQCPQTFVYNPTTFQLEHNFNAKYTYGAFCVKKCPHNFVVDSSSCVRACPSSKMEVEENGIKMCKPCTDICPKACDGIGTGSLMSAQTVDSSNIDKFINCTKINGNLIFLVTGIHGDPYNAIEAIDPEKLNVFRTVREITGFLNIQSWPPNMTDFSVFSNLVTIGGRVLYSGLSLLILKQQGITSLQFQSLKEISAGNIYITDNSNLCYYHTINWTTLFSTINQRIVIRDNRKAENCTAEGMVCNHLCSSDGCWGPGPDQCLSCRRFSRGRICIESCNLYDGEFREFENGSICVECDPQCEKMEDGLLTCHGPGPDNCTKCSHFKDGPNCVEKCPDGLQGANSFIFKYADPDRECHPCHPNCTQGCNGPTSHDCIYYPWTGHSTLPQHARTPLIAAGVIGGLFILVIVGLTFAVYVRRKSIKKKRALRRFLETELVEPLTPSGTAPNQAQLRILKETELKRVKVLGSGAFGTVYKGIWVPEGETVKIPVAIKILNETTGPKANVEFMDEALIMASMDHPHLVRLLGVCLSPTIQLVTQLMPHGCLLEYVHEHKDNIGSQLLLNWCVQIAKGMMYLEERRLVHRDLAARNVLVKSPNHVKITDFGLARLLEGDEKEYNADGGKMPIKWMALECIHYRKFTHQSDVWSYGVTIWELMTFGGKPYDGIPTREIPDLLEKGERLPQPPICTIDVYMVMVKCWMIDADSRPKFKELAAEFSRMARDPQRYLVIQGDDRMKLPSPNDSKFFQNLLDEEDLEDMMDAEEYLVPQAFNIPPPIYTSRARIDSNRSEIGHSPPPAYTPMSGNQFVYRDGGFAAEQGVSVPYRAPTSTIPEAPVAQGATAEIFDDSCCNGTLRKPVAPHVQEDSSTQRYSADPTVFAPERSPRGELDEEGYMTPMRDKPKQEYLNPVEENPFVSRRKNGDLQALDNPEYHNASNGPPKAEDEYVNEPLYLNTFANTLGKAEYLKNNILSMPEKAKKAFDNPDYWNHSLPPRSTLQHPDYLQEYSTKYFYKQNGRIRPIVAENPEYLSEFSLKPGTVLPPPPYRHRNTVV

Compound | Activity [1] [%] | Activity [2] [%] | Activity [3] [%] | Activity [4] [%] | Activity [5] [%] | Activity [6] [%] | Activity [7] [%] | Activity [8] [%] | Activity [9] [%] | Activity [10] [%] | Activity [11] [%] | Activity [12] [%] | Activity [13] [%] | Activity [14] [%] | Activity [15] [%] | Activity [17] [%] | Activity [18] [%] | Activity [19] [%] | Activity [20] [%] | Activity [21] [%] | also measured
CN(C)CCCC(=O)Nc1ccc2nccc(Nc3cccc(Br)c3)c2c1 | 62 | 63 | 66 | 68 | 72 | 73 | 74 | 77 | 80 | 82 | 85 | 85 | 85 | 86 | 88 | 88 | 96 | 99 | 104 | -10 | Activity [16]: 88%; Activity (PC-9): Active; Activity [22]: 1%; Activity [23]: 12%; Activity [24]: 13%; Activity [25]: 26%; Activity [26]: 33%; Activity [27]: 45%; Activity [28]: 46%; Activity [29]: 57%; GI50 (cells): > 500 nM; Activity [30]: 78%
CN(C)CCCC(=O)Nc1ccc2ncnc(Nc3cccc(Br)c3)c2c1 | 90 | 81 | 32 | 64 | 81 | 63 | 78 | 82 | 90 | 72 | 65 | 77 | 79 | 91 | 66 | 93 | 93 | 91 | 97 | -12 | Activity [22]: 3%; Activity [23]: 35%; Activity [24]: 44%; Activity [25]: 10%; Activity [26]: 21%; Activity [27]: 29%; Activity [28]: 52%; Activity [29]: 67%; GI50 (cells): > 5000 nM

From ChEMBL document CHEMBL1156950, “Synthesis and biological evaluation of 4-anilinoquinolines as potent inhibitors of epidermal growth factor receptor” (J Med Chem, 2010)
